{
  "source": "patent US7326721B2",
  "about": "(Hypnion, Inc., priority 2003, dated 2008)",
  "key": {"Crl:CD-I(ICR)BR mice": {"test_system": "Crl:CD-I(ICR)BR mice", "assay": "Acetic acid-induced abdominal spasm test in the mouse", "type": "in vivo", "conditions": "for Number of abdominal spasms recorded in a 25-minute period: oral", "experimental": "The objective of this example was to determine the analgesic activity of HY-2901 (Also referred to herein as Compound 49a) following oral administration. Analgesic activity was assessed abdominal spasm test in the rat and mouse. Analgesic activity is also assessed using the tail clip test in the mouse, tail flick test in the rat, Randall-Selitto test in the rat and comparisons are made with a vehicle control group. Reference compounds ASA (acetylsalicylic acid) and morphine are also included for comparison.\nThe tail clip and tail flick test provide useful information about the central analgesic activity of the test article. The Randall-Selitto test provides information on the compound's ability to modify a hyperalgesic state and the abdominal spasm test provides information on the peripheral analgesic activity of the test article. The test article is administered by oral gavage, this being the intended clinical route of administration. The dose levels employed are expected to encompass the efficacy dose and provide an adequate safety margin.\nAll formulations were prepared on each day of dosing. The test article (HY-2901) was formulated in 0.25% (w/v) MC at the highest concentration required. Lower doses were obtained by serial dilution of the highest concentration using 0.25% (w/v) MC. The reference compound, acetylsalicylic acid, was formulated in 0.25% (w/v) MC at the required concentrations. Brewer's yeast was formulated in water for injection at the required concentration. Acetic acid was diluted with water for injection to provide the required concentration for administration.\nAn adequate number of male Crl:CD-I(ICR)BR mice and Wistar rats were obtained from Charles River (UK) Ltd., Margate, Kent. The mice were approximately 4 weeks of age and weigh between 18 and 22 g on arrival. The rats were approximately 5 weeks of age and weigh between 150 and 170 g on arrival. The age and weight of the animals at the start of the study was documented in the raw data and final report,\nEach animal received a single administration of vehicle, test article or reference compound by oral gavage, using a constant dose volume 10 mL/kg. Individual dose volumes were based on individual body weights obtained on the day of dosing.\nForty-five minutes following oral administration each animal received a 0.25 mL intraperitoneal injection of 0.5% acetic acid. Animals were immediately placed into individual observation chambers and the number of abdominal spasms elicited over the subsequent 25-minute period was recorded."}, "rat hepatocytes": {"test_system": "rat hepatocytes", "assay": "In vitro rate of metabolism in rat hepatocyte cultures", "type": "in vitro ADME", "experimental": "Cytochrome P450 inhibition was studied with HY2901 in vitro. […] In addition, the in vitro rate of metabolism in rat, dog, monkey, and human hepatocyte cultures was determined for HY2901."}, "telemetered Beagle dogs": {"test_system": "telemetered Beagle dogs", "assay": "ECG and arterial blood pressure in telemetered Beagle dogs", "type": "in vivo, dog", "experimental": "To determine if HY2901 could produce any changes in QT interval, the compound was studied in telemetered Beagle dogs. Dogs were implanted with devices to continuously monitor ECG and arterial blood pressure. Dogs (groups of 4) were studied in a Latin square cross-over design, with each dog receiving 3 different doses and a placebo. Two studies were conducted with doses of 0.3, 1, 3, 10, and 30 mg/kg. […] The tachycardia persisted for 6–8 hours postdose at 0.3 and 1 mg/kg. A ceiling effect to the heart rate increase seemed to exist with heart rates peaking at approximately 150–160 in both the 10 and 30 mg/kg dose groups."}, "Histamine, H3": {"molecular_target": "Histamine, H3 (Homo sapiens, UniProt Q9Y5N1)", "sequence (Q9Y5N1 whole entry)": "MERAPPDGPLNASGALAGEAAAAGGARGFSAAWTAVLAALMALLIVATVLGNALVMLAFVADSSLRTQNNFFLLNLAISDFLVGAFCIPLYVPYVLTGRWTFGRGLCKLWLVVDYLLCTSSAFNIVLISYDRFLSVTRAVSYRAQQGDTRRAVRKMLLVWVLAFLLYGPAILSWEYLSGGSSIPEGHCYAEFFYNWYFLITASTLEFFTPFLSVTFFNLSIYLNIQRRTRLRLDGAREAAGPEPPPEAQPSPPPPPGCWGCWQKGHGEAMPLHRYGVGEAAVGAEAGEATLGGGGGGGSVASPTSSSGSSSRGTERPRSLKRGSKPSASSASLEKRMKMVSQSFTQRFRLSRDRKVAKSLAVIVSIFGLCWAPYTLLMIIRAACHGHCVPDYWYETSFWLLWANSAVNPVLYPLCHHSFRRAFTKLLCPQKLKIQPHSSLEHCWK", "assay": "biochemical", "conditions": "read-out: percentage inhibition of specific binding"}, "Angiotensin II, AT2": {"molecular_target": "Angiotensin II, AT2 (Homo sapiens, UniProt P50052)", "sequence (P50052 whole entry)": "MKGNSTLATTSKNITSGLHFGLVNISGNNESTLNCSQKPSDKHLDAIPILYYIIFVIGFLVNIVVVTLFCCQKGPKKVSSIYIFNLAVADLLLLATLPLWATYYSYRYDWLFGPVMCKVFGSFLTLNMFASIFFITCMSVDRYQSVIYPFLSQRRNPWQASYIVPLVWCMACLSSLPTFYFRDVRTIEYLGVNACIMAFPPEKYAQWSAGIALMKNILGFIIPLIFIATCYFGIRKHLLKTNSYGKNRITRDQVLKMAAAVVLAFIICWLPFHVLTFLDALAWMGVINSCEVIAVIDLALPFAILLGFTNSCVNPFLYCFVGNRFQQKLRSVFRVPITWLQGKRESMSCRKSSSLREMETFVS", "assay": "Table 12 panel: Angiotensin II, AT2", "conditions": "1.0E−6, average N=2, read-out: percentage inhibition of specific binding", "source_text": "(§1) The percentage inhibition (average; N=2) for these receptors is shown below in Table 12.\n(§2) Values in Table 12 are expressed as percentage inhibition of specific binding, and these values represent the average of replicate tubes at each of the concentrations tested."}, "[1]": {"molecular_target": "Cholecystokinin, CCK2 (CCKB) (Homo sapiens, UniProt P32239)", "sequence (P32239 whole entry)": "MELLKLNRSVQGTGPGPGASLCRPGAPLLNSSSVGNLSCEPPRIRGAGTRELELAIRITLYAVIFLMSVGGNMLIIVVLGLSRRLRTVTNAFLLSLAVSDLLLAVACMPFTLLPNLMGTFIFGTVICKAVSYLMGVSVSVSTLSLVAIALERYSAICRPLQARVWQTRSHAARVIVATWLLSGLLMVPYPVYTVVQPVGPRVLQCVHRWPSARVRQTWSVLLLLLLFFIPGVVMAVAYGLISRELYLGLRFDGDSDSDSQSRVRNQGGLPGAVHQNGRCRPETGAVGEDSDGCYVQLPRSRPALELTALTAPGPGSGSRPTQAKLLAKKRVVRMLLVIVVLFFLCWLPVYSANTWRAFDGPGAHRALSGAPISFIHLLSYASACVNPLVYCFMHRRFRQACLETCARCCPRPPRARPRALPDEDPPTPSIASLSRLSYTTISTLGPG", "assay": "Table 12 panel: CCK2", "conditions": "1.0E−6, average N=2, read-out: percentage inhibition of specific binding", "source_text": "as §1, §2"}, "[2]": {"test_system": "Potassium Channel, ATP-Sensitive", "assay": "Table 12 panel: Potassium Channel, ATP-Sensitive", "type": "binding", "conditions": "1.0E−6, average N=2", "source_text": "as §1, §2"}, "Glutamate, Kainate Site": {"test_system": "Glutamate, Kainate Site", "assay": "Table 12 panel: Glutamate, Kainate", "type": "binding", "conditions": "1.0E−6, average N=2", "source_text": "as §1, §2"}, "Dopamine, Non-selective": {"test_system": "Dopamine, Non-selective", "assay": "Table 12 panel: Dopamine, Non-selective", "type": "binding", "conditions": "1.0E−6, average N=2", "source_text": "as §1, §2"}, "Opioid, Non-selective": {"test_system": "Opioid, Non-selective", "assay": "Table 12 panel: Opioid", "type": "binding", "conditions": "1.0E−6, average N=2", "source_text": "as §1, §2"}, "Sodium, Site 2": {"test_system": "Sodium, Site 2", "assay": "Table 12 panel: Sodium, Site 2", "type": "binding", "conditions": "1.0E−6, average N=2", "source_text": "as §1, §2"}, "GABA-B": {"molecular_target": "GABA-B (Homo sapiens, UniProt Q9UBS5)", "sequence (Q9UBS5 15-961 limits assumed)": "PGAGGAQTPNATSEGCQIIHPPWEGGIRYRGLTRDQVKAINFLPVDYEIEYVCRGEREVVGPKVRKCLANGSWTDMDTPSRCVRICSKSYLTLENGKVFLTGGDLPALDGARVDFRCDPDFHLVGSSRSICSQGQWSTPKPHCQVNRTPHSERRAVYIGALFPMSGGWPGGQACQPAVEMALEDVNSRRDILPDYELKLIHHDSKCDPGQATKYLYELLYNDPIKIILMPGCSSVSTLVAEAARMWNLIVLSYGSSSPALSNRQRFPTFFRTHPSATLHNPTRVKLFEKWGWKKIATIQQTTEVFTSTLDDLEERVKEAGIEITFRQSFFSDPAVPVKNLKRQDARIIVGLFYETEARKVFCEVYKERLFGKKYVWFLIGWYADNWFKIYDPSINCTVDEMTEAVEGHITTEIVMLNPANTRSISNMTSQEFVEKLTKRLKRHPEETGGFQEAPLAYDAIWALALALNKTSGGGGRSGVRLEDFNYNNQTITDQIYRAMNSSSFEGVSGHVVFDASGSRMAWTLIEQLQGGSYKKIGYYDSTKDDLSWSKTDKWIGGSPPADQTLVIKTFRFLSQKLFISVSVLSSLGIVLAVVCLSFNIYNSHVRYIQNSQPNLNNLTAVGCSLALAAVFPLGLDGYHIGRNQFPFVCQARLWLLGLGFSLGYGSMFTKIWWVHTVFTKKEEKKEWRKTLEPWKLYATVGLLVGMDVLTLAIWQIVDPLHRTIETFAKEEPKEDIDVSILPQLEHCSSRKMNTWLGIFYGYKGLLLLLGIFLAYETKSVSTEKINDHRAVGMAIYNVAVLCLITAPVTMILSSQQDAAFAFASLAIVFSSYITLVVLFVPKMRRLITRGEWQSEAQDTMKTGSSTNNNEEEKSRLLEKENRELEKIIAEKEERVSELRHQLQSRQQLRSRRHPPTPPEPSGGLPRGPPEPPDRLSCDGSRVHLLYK", "sequence (O75899 42-941 partner)": "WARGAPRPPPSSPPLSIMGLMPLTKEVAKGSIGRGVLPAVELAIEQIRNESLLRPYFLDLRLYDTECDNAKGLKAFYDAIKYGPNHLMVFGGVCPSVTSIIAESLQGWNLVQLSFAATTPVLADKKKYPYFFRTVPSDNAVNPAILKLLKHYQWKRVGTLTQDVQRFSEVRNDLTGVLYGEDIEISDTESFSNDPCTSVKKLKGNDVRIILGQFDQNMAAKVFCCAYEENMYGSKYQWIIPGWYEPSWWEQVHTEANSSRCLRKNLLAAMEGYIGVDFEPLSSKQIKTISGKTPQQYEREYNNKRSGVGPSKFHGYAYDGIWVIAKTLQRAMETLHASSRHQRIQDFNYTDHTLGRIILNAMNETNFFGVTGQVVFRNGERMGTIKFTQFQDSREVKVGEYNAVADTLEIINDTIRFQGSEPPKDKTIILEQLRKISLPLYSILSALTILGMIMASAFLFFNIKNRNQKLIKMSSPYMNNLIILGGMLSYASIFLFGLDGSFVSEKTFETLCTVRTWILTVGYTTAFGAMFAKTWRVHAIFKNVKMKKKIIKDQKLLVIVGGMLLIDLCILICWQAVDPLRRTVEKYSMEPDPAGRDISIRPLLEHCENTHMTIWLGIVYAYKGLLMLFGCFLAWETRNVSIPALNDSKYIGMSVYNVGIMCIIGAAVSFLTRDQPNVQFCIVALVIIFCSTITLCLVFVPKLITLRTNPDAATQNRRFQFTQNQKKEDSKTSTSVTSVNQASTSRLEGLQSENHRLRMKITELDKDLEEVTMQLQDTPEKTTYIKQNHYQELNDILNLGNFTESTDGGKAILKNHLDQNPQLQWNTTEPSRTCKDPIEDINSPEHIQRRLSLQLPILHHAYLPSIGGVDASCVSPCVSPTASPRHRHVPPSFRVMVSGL", "assay": "Table 12 panel: GABA-B", "conditions": "1.0E−6, average N=2, read-out: percentage inhibition of specific binding", "source_text": "as §1, §2"}, "[3]": {"molecular_target": "Norepinephrine Transporter (Homo sapiens, UniProt P23975)", "sequence (P23975 whole entry, species assumed)": "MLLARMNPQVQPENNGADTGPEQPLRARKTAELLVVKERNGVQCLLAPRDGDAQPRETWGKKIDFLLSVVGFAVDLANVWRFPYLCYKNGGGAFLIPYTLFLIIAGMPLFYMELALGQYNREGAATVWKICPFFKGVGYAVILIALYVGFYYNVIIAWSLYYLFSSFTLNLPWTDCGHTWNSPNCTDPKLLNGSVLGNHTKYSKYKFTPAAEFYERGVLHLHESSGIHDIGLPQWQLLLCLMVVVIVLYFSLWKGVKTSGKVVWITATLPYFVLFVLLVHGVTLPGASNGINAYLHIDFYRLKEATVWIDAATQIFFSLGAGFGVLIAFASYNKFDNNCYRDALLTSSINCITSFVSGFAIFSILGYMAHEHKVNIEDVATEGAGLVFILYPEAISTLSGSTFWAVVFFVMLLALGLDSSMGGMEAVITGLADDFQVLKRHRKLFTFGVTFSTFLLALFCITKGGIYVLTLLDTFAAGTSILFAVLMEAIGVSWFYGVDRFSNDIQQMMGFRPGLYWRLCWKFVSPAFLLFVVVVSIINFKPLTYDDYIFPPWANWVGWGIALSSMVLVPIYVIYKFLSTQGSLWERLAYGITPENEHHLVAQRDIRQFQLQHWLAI", "assay": "Table 12 panel: Norepinephrine Transporter", "conditions": "1.0E−6, average N=2, read-out: percentage inhibition of specific binding", "source_text": "as §1, §2"}},
  "note": "Where “and” joins values, the source holds several entries; their conditions need not be identical. Equal entries are not always repeated.",
  "data": [
    {"smiles": "CC(C)(CN1CCC(=C2c3ccc(F)cc3COc3ccccc32)CC1)C(=O)O", "note": "[Compound 49a]", "values": [
      {"measurement": "Group mean (±sd) number of abdominal spasms recorded in a 25 minute period", "setting": "Crl:CD-I(ICR)BR mice; oral 3 mg/kg", "result": "6 ± 6.2"},
      {"measurement": "Group mean (±sd) number of abdominal spasms recorded in a 25 minute period", "setting": "Crl:CD-I(ICR)BR mice; oral 10 mg/kg", "result": "1 ± 2.0"},
      {"measurement": "Group mean (±sd) number of abdominal spasms recorded in a 25 minute period", "setting": "Crl:CD-I(ICR)BR mice; oral 30 mg/kg", "result": "0 ± 0.0"},
      {"measurement": "Number of abdominal spasms recorded in a 25-minute period", "setting": "Crl:CD-I(ICR)BR mice; 3 mg/kg, individual animal data (animals 7-12), listed as HY-2901, 3 mg/kg", "result": "0 (2×) and 1 and 10 and 7 and 15"},
      {"measurement": "Number of abdominal spasms recorded in a 25-minute period", "setting": "Crl:CD-I(ICR)BR mice; 10 mg/kg, individual animal data (animals 13-18), listed as HY-2901, 10 mg/kg", "result": "0 (4×) and 2 and 5"},
      {"measurement": "Number of abdominal spasms recorded in a 25-minute period", "setting": "Crl:CD-I(ICR)BR mice; 30 mg/kg, individual animal data (animals 19-24)", "result": 0},
      {"measurement": "in vitro metabolism", "setting": "rat hepatocytes", "result": "extensively metabolized"},
      {"measurement": "persistence of tachycardia postdose", "setting": "telemetered Beagle dogs; 0.3 and 1 mg/kg", "result": "6 to 8", "unit": "h"},
      {"measurement": "peak heart rate", "setting": "telemetered Beagle dogs; 10 and 30 mg/kg dose groups", "result": "150–160"},
      {"measurement": "QT or corrected QT interval", "setting": "telemetered Beagle dogs; doses of 0.3, 1, 3, 10, and 30 mg/kg", "result": "no changes in QT or corrected QT interval at any dose"},
      {"measurement": "heart rate effect", "setting": "telemetered Beagle dogs; doses of 0.3 to 30 mg/kg, intravenous or oral", "result": "dose-related sinus tachycardia"},
      {"measurement": "persistence of tachycardia", "setting": "telemetered Beagle dogs; higher doses", "result": "10 to 12", "unit": "h"},
      {"measurement": "blood pressure", "setting": "telemetered Beagle dogs; paralleled the tachycardia", "result": "slight increase in blood pressure"}
    ]},
    {"smiles": "CC(CC(=O)O)N1CCC(=C2c3ccc(F)cc3COc3ccccc32)CC1", "note": "(centres unmarked) [Compound 37]", "values": [
      {"measurement": "inhibition at 1 µM", "setting": "Histamine, H3", "result": 5.11, "unit": "%"},
      {"measurement": "inhibition at 1 µM", "setting": "Angiotensin II, AT2", "result": 1.51, "unit": "%"},
      {"measurement": "inhibition at 1 µM", "setting": "[1]", "result": 3.98, "unit": "%"},
      {"measurement": "percentage inhibition of specific binding", "setting": "[2]", "result": 26.16, "unit": "%"},
      {"measurement": "percentage inhibition of specific binding", "setting": "Glutamate, Kainate Site", "result": 1.51, "unit": "%"},
      {"measurement": "percentage inhibition of specific binding", "setting": "Dopamine, Non-selective", "result": 21.10, "unit": "%"},
      {"measurement": "percentage inhibition of specific binding", "setting": "Opioid, Non-selective", "result": "−9.30", "unit": "%"},
      {"measurement": "percentage inhibition of specific binding", "setting": "Sodium, Site 2", "result": "−4.12", "unit": "%"},
      {"measurement": "inhibition at 1 µM", "setting": "GABA-B", "result": 2.17, "unit": "%"},
      {"measurement": "inhibition at 1 µM", "setting": "[3]", "result": 19.5, "unit": "%"}
    ]}
  ]
}
